Measurements as given in article PMC7138307 (PLoS ONE, 2020).
“Also recorded” adds a separate entry of the source.

Tests used:
PIP5K3 = target: T1, PIP5K3 (Mus musculus, UniProt Q9Z1T6); assay: In vivo target engagement, KiNativ ADP probe, mouse brain lysates; conditions: 75 mg/kg I.P., one hour, peptide GGKSGAAFYATEDDRFILK, ATP site
T1 construct: homogenized brain lysates were labeled with Desthiobiotin-ADP-acyl phosphate probe; from tissue; host or cells: mouse cortical brain lysate
Source text: (§1) To determine both in vivo target engagement and identify any potential off-target kinases inhibited by BIIB-TTBKi, we used a combination of desthiobiotin-ATP/ADP probes to covalently bind and biotinylate the conserved lysine residues at the active site of protein kinases (ActivX-KiNativ; Kyorin Pharmaceuticals, Ltd, Tokyo Japan). […] Lysates were trypsin digested and desthiobiotinylated peptides were captured on streptavidin beads. A list of 269 unique peptides were quantified through LC-MS/MS parallel reaction monitoring method. Target engagement was calculated as the percentage of peptide signal lost after addition of BIIB-TTBKi when compared to the vehicle treated lysate. Using the ADP probe, we were able to detect a total of 150 kinases in the mouse cortical brain lysates (Fig 5A).
(§2) Mice were euthanized one hour following injection and homogenized brain lysates were labeled with Desthiobiotin-ADP-acyl phosphate probe (ADP probe). Desthiobiotinylated peptides were captured on streptavidin beads and peptides were quantified through LC-MS/MS parallel reaction monitoring method. Target engagement was calculated as the percentage of peptide signal lost when compared to the vehicle treated lysate. (A) Visualization of the off-target effects of BIIB-TTBKi at 75mg/kg. The ADP probe labelled around 150 unique kinases in mouse cortical brain lysates.

PIP4K2C = target: T2, PIP4K2C (Mus musculus, UniProt Q91XU3); assay: as above; conditions: 75 mg/kg I.P., one hour, peptide TLVIKEVSSEDIADMHSNLSNYHQYIVK, ATP site
T2 construct: from tissue; host or cells: mouse cortical brain lysate
T2 sequence (Q91XU3 1-421): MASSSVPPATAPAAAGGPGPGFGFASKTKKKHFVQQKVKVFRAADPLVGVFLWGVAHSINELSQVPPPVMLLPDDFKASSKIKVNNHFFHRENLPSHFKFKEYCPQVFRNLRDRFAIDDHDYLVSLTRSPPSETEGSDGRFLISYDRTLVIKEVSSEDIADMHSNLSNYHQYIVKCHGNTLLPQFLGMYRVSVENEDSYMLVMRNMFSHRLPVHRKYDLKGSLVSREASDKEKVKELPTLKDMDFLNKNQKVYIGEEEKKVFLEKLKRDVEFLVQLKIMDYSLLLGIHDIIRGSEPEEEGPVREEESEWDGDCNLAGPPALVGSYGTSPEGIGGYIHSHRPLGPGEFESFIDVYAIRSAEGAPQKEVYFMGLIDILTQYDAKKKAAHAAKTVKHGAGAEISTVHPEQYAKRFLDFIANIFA
Source text: as §1, §2

tau phosphorylation = assay: Isoflurane induced hypothermia tau phosphorylation in C57Bl/6 mice (western blot of cortex); type: in vivo, mouse
Source text: Under basal conditions, tau phosphorylation is tightly regulated by opposing kinase and phosphatase activities. In mice, isoflurane induced hypothermia causes a dramatic increase in tau phosphorylation through the temperature dependent inhibition of PP2A [40]. In the current experiment, we used isoflurane induced hypothermia in C57Bl/6 mice to increase tau phosphorylation in order to test the effects of TTBK1 inhibition. By using wild-type mice we ensured that both the levels of tau and tau kinases were at endogenous levels. […] Based on our in vitro potency assays and pharmacokinetic parameters, the highest dose used (75 mg/kg) was projected to achieve an IC80 of TTBK1 inhibition for the one hour of hypothermia treatment (S3 Fig). […] This further confirms that S422, a site implicated in the early stages of neurofibrillary tangle formation in disease, is likely solely phosphorylated by TTBK1 in the brain.
Fig 6 Acute TTBK1 inhibition reduces tau phosphorylation at disease relevant sites in vivo. […] Phosphorylation signal was normalized to the level of total tau in each sample. Data is represented as the mean +/- SEM. For each phospho-epitope, treatment significance was determined first by one-way ANOVA between all groups; For each dose group, Tukey’s comparison was used to determine significance versus the Vehicle treated control. (B) Correlation within each brain sample between the level of tau phosphorylation at S422 and the measured concentration of free drug (R^2 = 0.4254; p = 0.0569).
Samples were lysed in Pierce RIPA lysis and extraction buffer (Thermo Fisher Scientific, Waltham, MA) supplemented with 1% Halt protease and phosphatase inhibitor cocktail (Thermo Fisher Scientific, Waltham, MA) and centrifuged at 14000 x g for 20 min at 4°C to clear the lysate. Protein concentrations were determined using the Direct Detect Infrared Spectrometer (EMD Millipore Corp., Burlington, MA) and 10μg of each sample was denatured in 6X SDS sample buffer (Boston Bioproducts, Ashland, MA) for 7 minutes at 90°C. Proteins were loaded into a Criterion 7.5% tris-glycine gel (Bio-Rad, Hercules, CA) and separated by SDS-PAGE at 120V for 120 minutes. The gel was transferred to an IBlot2 nitrocellulose membrane (Invitrogen, Carlsbad, CA), blocked with TBST blocking buffer (Li-cor Biosciences, Lincoln, NE) for 1 hour, and washed three times with TBST. The membrane was probed with primary antibodies (1:1000 dilution) in antibody dilution buffer (1:1 TBST blocking buffer and 1X TBST) overnight at 4°C. The following antibodies were used for immunoblotting: TTBK1 (Cat# PA5-20686, Invitrogen, Carlsbad, CA), Tau-5 (Cat# ab80579, Abcam, Cambridge, UK), phospho-Tau S422 (Cat# ab79415, Abcam, Cambridge, UK), S198 (Cat# ab79540, Abcam, Cambridge, UK), AT8 S202/T205 (Cat# MN1020, Invitrogen, Carlsbad, CA), S214 (Cat# ab170892, Abcam, Cambridge, UK), AT180 T231 (Cat# MN1040, Invitrogen, Carlsbad, CA), S262 (Cat# ab131354, Abcam, Cambridge, UK), S356 (Cat# ab75603, Abcam, Cambridge, UK), S396 (Cat# ab109390, Abcam, Cambridge, UK), GAPDH (Cat# 5174S, Cell Signaling Technology, Danvers, MA), and β-actin (Cat# 926–42212, Li-cor Biosciences, Lincoln, NE). The blot was then washed in triplicate with TBST and incubated for 1 hour with secondary antibody (1:10,000 dilution of IRDye 800 anti-mouse IgG and IRDye 680 anti-rabbit IgG, Li-cor Biosciences, Lincoln, NE) in antibody dilution buffer. After a final triplicate wash with TBST, the blot was visualized using the Odyssey CLx imaging system (Li-cor Biosciences, Lincoln, NE).
Seven-week-old male C576Bl/6 mice were used for all hypothermia experiments (Charles River Laboratories, Wilmington, MA). Hypothermia was induced by exposure to vaporized isoflurane in an anesthetic induction chamber attached to a V-1 Tabletop Anesthesia System (VetEquip, Inc., Livermore, CA). The mice remained in the chamber for 60 minutes with a constant isoflurane concentration of 2%. […]

CK1d, CK1e = assay: Ex vivo KiNativ ATP/ADP probe competition in mouse cortical brain lysates; type: binding; conditions: DVKPDNFLMGLGKK; Lys2; ATP probe

T1 sequence (Q9Z1T6 whole entry): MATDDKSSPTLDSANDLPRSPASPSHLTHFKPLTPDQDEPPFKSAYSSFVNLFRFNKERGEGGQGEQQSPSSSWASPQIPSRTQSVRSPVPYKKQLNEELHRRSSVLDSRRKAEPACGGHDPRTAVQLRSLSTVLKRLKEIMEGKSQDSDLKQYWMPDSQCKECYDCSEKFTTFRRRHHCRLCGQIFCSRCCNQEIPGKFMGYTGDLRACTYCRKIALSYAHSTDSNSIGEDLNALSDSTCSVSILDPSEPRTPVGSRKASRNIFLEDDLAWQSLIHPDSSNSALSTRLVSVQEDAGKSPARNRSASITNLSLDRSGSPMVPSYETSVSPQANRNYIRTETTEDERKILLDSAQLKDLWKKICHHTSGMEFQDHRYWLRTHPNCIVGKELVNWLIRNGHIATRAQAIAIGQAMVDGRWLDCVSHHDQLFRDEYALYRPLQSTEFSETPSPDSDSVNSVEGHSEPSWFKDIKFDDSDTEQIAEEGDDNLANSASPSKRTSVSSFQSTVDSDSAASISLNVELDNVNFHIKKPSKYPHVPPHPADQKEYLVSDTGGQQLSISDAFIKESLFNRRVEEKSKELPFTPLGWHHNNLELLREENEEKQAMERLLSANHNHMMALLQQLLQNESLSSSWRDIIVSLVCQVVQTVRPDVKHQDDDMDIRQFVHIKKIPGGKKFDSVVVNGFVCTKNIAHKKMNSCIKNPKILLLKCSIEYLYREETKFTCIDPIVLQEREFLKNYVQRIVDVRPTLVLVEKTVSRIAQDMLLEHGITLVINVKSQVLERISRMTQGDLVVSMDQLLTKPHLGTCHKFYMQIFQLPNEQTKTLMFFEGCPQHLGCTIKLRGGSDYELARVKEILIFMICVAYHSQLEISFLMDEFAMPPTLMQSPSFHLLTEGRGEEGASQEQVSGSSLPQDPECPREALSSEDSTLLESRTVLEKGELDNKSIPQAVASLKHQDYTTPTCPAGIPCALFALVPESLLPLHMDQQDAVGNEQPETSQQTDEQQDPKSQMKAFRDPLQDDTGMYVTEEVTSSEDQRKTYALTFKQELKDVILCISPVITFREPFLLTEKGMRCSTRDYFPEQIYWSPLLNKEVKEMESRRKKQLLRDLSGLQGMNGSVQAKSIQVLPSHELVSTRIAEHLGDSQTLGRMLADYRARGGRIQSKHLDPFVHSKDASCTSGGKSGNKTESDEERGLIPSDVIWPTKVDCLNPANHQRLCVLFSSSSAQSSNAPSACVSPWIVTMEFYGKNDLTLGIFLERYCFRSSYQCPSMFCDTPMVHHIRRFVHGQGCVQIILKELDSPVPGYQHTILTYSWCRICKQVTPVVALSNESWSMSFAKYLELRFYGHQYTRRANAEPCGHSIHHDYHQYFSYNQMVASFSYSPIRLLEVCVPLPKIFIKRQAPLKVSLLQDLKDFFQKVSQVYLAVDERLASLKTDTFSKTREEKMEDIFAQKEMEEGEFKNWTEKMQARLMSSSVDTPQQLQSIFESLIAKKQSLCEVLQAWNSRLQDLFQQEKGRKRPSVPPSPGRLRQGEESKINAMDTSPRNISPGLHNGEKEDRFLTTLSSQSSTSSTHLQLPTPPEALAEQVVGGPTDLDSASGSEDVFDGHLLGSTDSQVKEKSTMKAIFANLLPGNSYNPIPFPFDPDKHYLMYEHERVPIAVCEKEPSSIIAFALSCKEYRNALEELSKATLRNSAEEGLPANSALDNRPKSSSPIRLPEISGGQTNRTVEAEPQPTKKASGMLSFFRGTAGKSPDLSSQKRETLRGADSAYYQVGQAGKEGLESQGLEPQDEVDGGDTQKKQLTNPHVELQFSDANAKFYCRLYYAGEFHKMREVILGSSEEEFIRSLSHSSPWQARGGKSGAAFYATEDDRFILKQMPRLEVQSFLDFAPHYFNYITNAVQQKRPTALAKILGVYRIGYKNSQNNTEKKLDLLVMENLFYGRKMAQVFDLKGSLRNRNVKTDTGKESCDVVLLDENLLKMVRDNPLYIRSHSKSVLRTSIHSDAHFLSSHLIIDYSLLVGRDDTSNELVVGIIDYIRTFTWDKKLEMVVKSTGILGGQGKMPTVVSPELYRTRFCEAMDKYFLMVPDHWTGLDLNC

## CCC(C)(O)C#Cc1cc2c(ccn2-c2ccnc(N)n2)cn1 (stereo not drawn) [BIIB-TTBK1i]
PIP5K3
  Percent Inhibition with BIIB-TTBKi at 75mpk: 90%
PIP4K2C
  Percent Inhibition with BIIB-TTBKi at 75mpk: 86.3%
Tau phosphorylation; 25mg/kg I.P., one hour, p = 0.0213 vs Vehicle
  average reduction in tau phosphorylation at S422: 60%
Tau phosphorylation; 50mg/kg I.P., one hour, p = 0.0005 vs Vehicle
  hypothermia induced tau phosphorylation at S422: completely restored to basal levels; also recorded: complete reversal
Tau phosphorylation; 75mg/kg I.P. p = 0.0002 vs Vehicle (50mg/kg p = 0.0005; 25mg/kg p = 0.0571)
  tau phosphorylation at AT180 (Thr231): significant decrease
Tau phosphorylation; 75mg/kg I.P. p = 0.0002 vs Vehicle (50mg/kg p = 0.011; 25mg/kg p = 0.8492)
  tau phosphorylation at S396: significant decrease
Tau phosphorylation; 75mg/kg I.P. p = 0.0066 vs Vehicle (50mg/kg p = 0.5391; 25mg/kg p>0.999)
  tau phosphorylation at AT8 (S202/T205): significant decrease
Tau phosphorylation; 75mg/kg I.P., one hour, p = 0.0007 vs Vehicle
  hypothermia induced tau phosphorylation at S422: completely restored to basal levels; also recorded: significant decrease
CK1d, CK1e
  Percent Inhibition at 1μM: 55.5%
